From patent US20240360151A1 (SANOFI, priority 2023, published 2024) come the findings set out here.

Assay [1] relates to NF-kB pathway (TNF-α secretion by THP-1 cells). As to the kind of experiment: TNF-α secretion assay in LPS-stimulated THP-1 cells, Lumit immunoassay. Format: cell-based, human. As to conditions: Homo sapiens, THP-1, 3 h, monocytic THP-1 cells, LPS 10 ng/mL, relative IC50, 10 concentrations, geometric mean. An outline of the steps:
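THP-1 monocytes in RPMI with 5% FBS were treated with compound, then stimulated with 10 ng/mL LPS for 3 h. Secreted TNF-α was measured in-plate by Lumit immunoassay. Relative IC50 came from 10-concentration curves fitted with a 4-parameter logistic model, reported as geometric mean.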

A further assay has as its target T1, NLRP3 inflammasome (Homo sapiens, UniProt Q96P20).
T1 construct: endogenous in cells; host or cells: THP-1 monocytic cells
As to the kind of experiment: IL-1β secretion assay (NLRP3 IC50) in LPS-primed, nigericin-activated THP-1 cells, HTRF. As to conditions: monocytic THP-1 cells; LPS 10 ng/mL 3 h priming, then compound + nigericin 10 μM 2 h; relative IC50, 10 concentrations, geometric mean. Format: cell-based. An outline of the steps:
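THP-1 cells primed with LPS 10 ng/mL for 3 h at 37° C., then compound (10-point 1:3 dilution, 0.1% DMSO) added with 10 μM nigericin for 2 h. Supernatant IL-1β measured by HTRF; relative IC50 from a 4-parameter logistic fit, reported as geometric mean.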

T1 sequence (Q96P20 whole entry): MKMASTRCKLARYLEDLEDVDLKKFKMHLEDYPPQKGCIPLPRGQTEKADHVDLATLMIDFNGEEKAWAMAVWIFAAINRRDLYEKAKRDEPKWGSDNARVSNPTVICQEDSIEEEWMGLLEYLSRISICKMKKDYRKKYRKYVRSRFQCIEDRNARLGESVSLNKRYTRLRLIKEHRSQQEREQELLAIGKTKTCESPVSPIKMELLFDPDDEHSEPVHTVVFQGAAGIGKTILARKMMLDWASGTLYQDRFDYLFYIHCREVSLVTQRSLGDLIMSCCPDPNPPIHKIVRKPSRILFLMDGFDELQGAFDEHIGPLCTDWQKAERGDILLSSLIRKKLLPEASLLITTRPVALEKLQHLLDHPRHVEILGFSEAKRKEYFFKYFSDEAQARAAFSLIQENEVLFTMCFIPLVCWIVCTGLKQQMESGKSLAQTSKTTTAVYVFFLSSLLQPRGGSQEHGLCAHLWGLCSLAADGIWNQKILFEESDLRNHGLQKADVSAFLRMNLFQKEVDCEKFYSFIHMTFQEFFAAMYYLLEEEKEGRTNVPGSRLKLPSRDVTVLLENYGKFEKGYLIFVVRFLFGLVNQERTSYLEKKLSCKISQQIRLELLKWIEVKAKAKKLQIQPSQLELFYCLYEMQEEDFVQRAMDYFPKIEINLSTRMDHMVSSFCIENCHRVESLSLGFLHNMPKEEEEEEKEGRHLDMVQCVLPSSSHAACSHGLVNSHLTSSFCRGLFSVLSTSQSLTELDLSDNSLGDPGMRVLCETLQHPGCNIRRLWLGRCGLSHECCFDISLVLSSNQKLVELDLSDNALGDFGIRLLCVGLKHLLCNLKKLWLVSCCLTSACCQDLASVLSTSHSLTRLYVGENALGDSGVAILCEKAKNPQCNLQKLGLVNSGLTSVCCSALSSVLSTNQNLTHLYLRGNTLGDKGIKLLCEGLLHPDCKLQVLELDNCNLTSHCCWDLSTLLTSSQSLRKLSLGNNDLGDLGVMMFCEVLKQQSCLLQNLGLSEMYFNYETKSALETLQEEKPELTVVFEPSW

`CC(=O)NC[C@H]1CCCN(c2ccc(-c3c(O)cc(Cl)cc3Cl)nn2)C1` [Example 57, N-[[(3R)-1-[6-(2,4-dichloro-6-hydroxy-phenyl)pyridazin-3-yl]-3-piperidyl]methyl]acetamide]: the IC50 was more than 10 µM in assay [1] and 0.248 µM at NLRP3 inflammasome.
As for `CC(=O)NC[C@@H]1CCCN(c2ccc(-c3c(O)cc(Cl)cc3Cl)nn2)C1` [Example 58, N-[[(3S)-1-[6-(2,4-dichloro-6-hydroxy-phenyl)pyridazin-3-yl]-3-piperidyl]methyl]acetamide], the figures for the IC50 (in assay [1]; at NLRP3 inflammasome) were more than 10 µM and 0.064 µM, respectively.
In the case of `Cc1cc(C(F)(F)F)cc(O)c1-c1ccc(N2CCCC2=O)nn1` [Example 61, 1-[6-[2-hydroxy-6-methyl-4-(trifluoromethyl)phenyl]pyridazin-3-yl]pyrrolidin-2-one], the IC50 is more than 10 µM in assay [1] and 0.09 µM on NLRP3 inflammasome.
Take `Cc1cc(C(F)(F)F)cc(O)c1-c1ccc(N2C[C@@H](O)CC2=O)nn1` [Example 62, (4S)-4-hydroxy-1-[6-[2-hydroxy-6-methyl-4-(trifluoromethyl)phenyl]pyridazin-3-yl]pyrrolidin-2-one]: the values for the concentration for half-maximal inhibition (IC50) (in assay [1]; on NLRP3 inflammasome) were more than 10 µM and 0.052 µM, respectively.
`Cc1cc(Cl)cc(O)c1-c1ccc(N2CCO[C@H](CO)C2)nn1` [Example 63, 5-chloro-2-[6-[(2S)-2-(hydroxymethyl)morpholin-4-yl]pyridazin-3-yl]-3-methyl-phenol]: the IC50 in assay [1] is more than 10 µM; on NLRP3 inflammasome it was 0.006 µM.
The like results for `Oc1cc(Cl)cc(Cl)c1-c1ccc(N2CC3(COC3)C2)nn1` [Example 64, 3,5-dichloro-2-[6-(2-oxa-6-azaspiro[3.3]heptan-6-yl)pyridazin-3-yl]phenol] were, in that order, more than 10 µM and 0.222 µM.
The corresponding values for `Cc1cc(C)c(-c2ccc(N3CC[C@@H](CO)C3)nn2)c(O)c1` [Example 65, 2-[6-[(3R)-3-(hydroxymethyl)pyrrolidin-1-yl]pyridazin-3-yl]-3,5-dimethyl-phenol] are more than 10 µM and 0.151 µM.
Take `Oc1cc(Cl)cc(Cl)c1-c1ccc(N2CCC3(CC2)COC3)nn1` [Example 66, 3,5-dichloro-2-[6-(2-oxa-7-azaspiro[3.5]nonan-7-yl)pyridazin-3-yl]phenol]: the IC50 in assay [1] is more than 10 µM; at NLRP3 inflammasome it was 0.304 µM.
In the case of `Cc1cc(C)c(-c2ccc(N3CCC[C@H](O)C3)nn2)c(O)c1` [Example 67, (3S)-1-[6-(2-hydroxy-4,6-dimethyl-phenyl)pyridazin-3-yl]piperidin-3-ol], the results for the IC50 (in assay [1]; on NLRP3 inflammasome) were more than 10 µM and 0.306 µM, respectively.
With `Cc1cc(C)c(-c2ccc(N3CCC[C@H](N)C3)nn2)c(O)c1` [Example 69, 2-[6-[(3S)-3-amino-1-piperidyl]pyridazin-3-yl]-3,5-dimethyl-phenol], the 50% inhibitory concentration (IC50) in assay [1] is more than 10 µM; on NLRP3 inflammasome it was 0.2 µM.
The corresponding values for `Cc1cc(C)c(-c2ccc(N3CC[C@@H](O)C3)nn2)c(O)c1` [Example 70, (3R)-1-[6-(2-hydroxy-4,6-dimethyl-phenyl)pyridazin-3-yl]pyrrolidin-3-ol] are more than 10 µM and 0.467 µM.
The corresponding values for `Cc1cc(C)c(-c2ccc(N3CC[C@H](O)C3)nn2)c(O)c1` [Example 71, (3S)-1-[6-(2-hydroxy-4,6-dimethyl-phenyl)pyridazin-3-yl]pyrrolidin-3-ol] are more than 10 µM and 0.27 µM.
On to `CCc1cc(N2CCO[C@H](CO)C2)nnc1-c1ccc(C)cc1O` [Example 72, 2-[4-ethyl-6-[(2S)-2-(hydroxymethyl)morpholin-4-yl]pyridazin-3-yl]-5-methyl-phenol], for which the 50% inhibitory concentration (IC50) is more than 10 µM in assay [1] and 0.107 µM on NLRP3 inflammasome.
Consider `CCc1cc(N2CCO[C@H](CO)C2)nnc1-c1ccc(Cl)cc1O` [Example 73, 5-chloro-2-[4-ethyl-6-[(2S)-2-(hydroxymethyl)morpholin-4-yl]pyridazin-3-yl]phenol], for which the concentration for half-maximal inhibition (IC50) in assay [1] was more than 10 µM; on NLRP3 inflammasome, 0.056 µM.
Regarding `Cc1ccc(-c2nnc(N3CCO[C@H](CO)C3)cc2C(C)C)c(O)c1` [Example 74, 2-[6-[(2S)-2-(hydroxymethyl)morpholin-4-yl]-4-isopropyl-pyridazin-3-yl]-5-methyl-phenol], the 50% inhibitory concentration (IC50) in assay [1] was more than 10 µM; at NLRP3 inflammasome it was 0.411 µM.
As to `CC(C)c1cc(N2CCO[C@H](CO)C2)nnc1-c1ccc(Cl)cc1O` [Example 75, 5-chloro-2-[6-[(2S)-2-(hydroxymethyl)morpholin-4-yl]-4-isopropyl-pyridazin-3-yl]phenol], the IC50 came out at 9.6 µM in assay [1] and 0.183 µM at NLRP3 inflammasome.
The corresponding values for `Cc1ccc(-c2nnc(N3CCO[C@H](CO)C3)cc2C)c(O)c1` [Example 76, 2-[6-[(2S)-2-(hydroxymethyl)morpholin-4-yl]-4-methyl-pyridazin-3-yl]-5-methyl-phenol] are 8.6 µM and 0.066 µM.
On to `Cc1ccc(-c2nnc(N3CCO[C@H](CO)C3)c3c2CCC3)c(O)c1` [Example 77, 2-[4-[(2S)-2-(hydroxymethyl)morpholin-4-yl]-6,7-dihydro-5H-cyclopenta[d]pyridazin-1-yl]-5-methyl-phenol], for which the IC50 was more than 10 µM in assay [1] and 0.135 µM on NLRP3 inflammasome.
Regarding `OC[C@@H]1CN(c2nnc(-c3ccc(Cl)cc3O)c3c2CCC3)CCO1` [Example 78, 5-chloro-2-[4-[(2S)-2-(hydroxymethyl)morpholin-4-yl]-6,7-dihydro-5H-cyclopenta[d]pyridazin-1-yl]phenol], the IC50 in assay [1] was more than 10 µM; at NLRP3 inflammasome, 0.436 µM.
As to `Cc1cc(C)c(-c2ccc(N3CC[C@H](CO)C3)nn2)c(O)c1` [Example 79, 2-[6-[(3S)-3-(hydroxymethyl)pyrrolidin-1-yl]pyridazin-3-yl]-3,5-dimethyl-phenol], the IC50 in assay [1] came to 9.5 µM; on NLRP3 inflammasome, 0.285 µM.
The like results for `Cc1ccc(-c2nnc(N3CCO[C@H](CO)C3)c(C)c2C)c(O)c1` [Example 80, 2-[6-[(2S)-2-(hydroxymethyl)morpholin-4-yl]-4,5-dimethyl-pyridazin-3-yl]-5-methyl-phenol] were, in that order, more than 10 µM and 0.208 µM.
The like results for `Cc1c(-c2ccc(Cl)cc2O)nnc(N2CCO[C@H](CO)C2)c1C` [Example 81, 5-chloro-2-[6-[(2S)-2-(hydroxymethyl)morpholin-4-yl]-4,5-dimethyl-pyridazin-3-yl]phenol] were, in that order, 9.8 µM and 0.164 µM.
The like results for `Cc1cc(N2CCO[C@H](CO)C2)nnc1-c1ccc(Cl)cc1O` [Example 85, 5-chloro-2-[6-[(2S)-2-(hydroxymethyl)morpholin-4-yl]-4-methyl-pyridazin-3-yl]phenol] were, in that order, more than 10 µM and 0.033 µM.
With `Cc1cc(C)c(-c2ccc(N3C[C@@H](O)CC3=O)nn2)c(O)c1` [Example 86, (4S)-4-hydroxy-1-[6-(2-hydroxy-4,6-dimethyl-phenyl)pyridazin-3-yl]pyrrolidin-2-one], the IC50 in assay [1] was more than 10 µM; on NLRP3 inflammasome, 0.506 µM.
The like results for `Cc1cc(C)c(-c2ccc(N3CCO[C@@H](CN)C3)nn2)c(O)c1` [Example 87, 2-[6-[(2S)-2-(aminomethyl)morpholin-4-yl]pyridazin-3-yl]-3,5-dimethyl-phenol; 2,2,2-trifluoroacetic acid] were, in that order, more than 10 µM and 0.311 µM.
The corresponding values for `COc1ccc(-c2nnc(N3CCO[C@H](CO)C3)cc2C)c(O)c1` [Example 116, 2-[6-[(2S)-2-(hydroxymethyl)morpholin-4-yl]-4-methyl-pyridazin-3-yl]-5-methoxy-phenol] are more than 10 µM and 0.454 µM.
As for `COc1cc(C)c(-c2nnc(N3CCO[C@H](CO)C3)cc2C)c(O)c1` [Example 119, 2-[6-[(2S)-2-(hydroxymethyl)morpholin-4-yl]-4-methyl-pyridazin-3-yl]-5-methoxy-3-methyl-phenol], the concentration for half-maximal inhibition (IC50) is more than 10 µM in assay [1] and 0.561 µM on NLRP3 inflammasome.
On to `Cc1cc(OC(F)(F)F)cc(O)c1-c1ccc(N2CCO[C@H](CO)C2)nn1` [Example 121, 2-[6-[(2S)-2-(hydroxymethyl)morpholin-4-yl]pyridazin-3-yl]-3-methyl-5-(trifluoromethoxy)phenol], for which the results for the half-inhibitory concentration (IC50) (in assay [1]; at NLRP3 inflammasome) were more than 10 µM and 0.092 µM, respectively.
On to `Cc1cc(C)c(-c2ccc(N3CCC(CO)C3=O)nn2)c(O)c1` (stereo not shown) [Example 122, 1-[6-(2-hydroxy-4,6-dimethyl-phenyl)pyridazin-3-yl]-3-(hydroxymethyl) pyrrolidin-2-one], for which the figures for the IC50 (in assay [1]; on NLRP3 inflammasome) were more than 10 µM and 0.149 µM, respectively.
In the case of `CCC(=O)C1CN(c2ccc(-c3c(C)cc(C)cc3O)nn2)CCO1` (stereo not shown) [Example 126, 1-[4-[6-(2-hydroxy-4,6-dimethylphenyl)pyridazin-3-yl]morpholin-2-yl]propan-1-one], the IC50 in assay [1] is more than 10 µM; at NLRP3 inflammasome it was 0.484 µM.
Consider `Cc1cc(Cl)cc(O)c1-c1ccc(N2CC[C@H](CO)C2)nn1` [Example 127, 5-chloro-2-[6-[(3S)-3-(hydroxymethyl)pyrrolidin-1-yl]pyridazin-3-yl]-3-methyl-phenol], for which the IC50 is more than 10 µM in assay [1] and 0.125 µM at NLRP3 inflammasome.
The like results for `CC(=O)NC[C@@H]1COCCN1c1ccc(-c2c(C)cc(C)cc2O)nn1` [Example 129, N-[[(3R)-4-[6-(2-hydroxy-4,6-dimethyl-phenyl)pyridazin-3-yl]morpholin-3-yl]methyl]acetamide] were, in that order, more than 10 µM and 0.665 µM.

What is called IC50 is the concentration that inhibits the measured activity by half.
